From patent US7015207B2, “Use of N-acetyl-D-glucosamine in the manufacture of pharmaceutical useful for preventing and treating sexual disorder” (Third Military Medical University, Chinese People's …, priority 2001, dated 2006)

Legend:
[1] = test system: sexual disfunction; assay: Clinic tests in male patients with sexual disfunction; type: in vivo, human; conditions: two weeks
Description: 32 examples of male patients were picked out, who had been repeatedly treated for sexual disfunction with current treatment method, but these treatments were failed, the patients are classified clinically into heavy, medium and light degree disease, separately administrated with N-acetyl-D-glucosamine in the form of capsule by oral (500 mg/day) and alcoholic solution (50 mg/1000 ml) by oral (10 ml/day), using two weeks as a period of treatment, and before and after the administration, and comparing the condition of the patient's symptom by detecting luteinizing hormone (LH), follicular stimulating hormone (FSH), prolactin (PRL), testosterone (T), estradiol (E2) and local blood flux. […] After treatment, the curative effect was steady and could be maintained for a long time.

[2] = test system: Proteus Mirabilis; assay: Promoting wave test (bacterial bio-wave growth model); type: cell-based; conditions: final concentration of 0.5% on LB plate, 37° C.
Excerpt: The following experimental examples are used to illustrate the promoting wave function, low toxicity and effectiveness for preventing and treating the sexual disfunction of the compound of the present invention (the compound of formula (I)). • I. Promoting wave test of the compound of formula (I) • 1. Experimental materials and method: • 1.1 Samples: pure compound of formula (I) • 1.2 Experimental materials: […]
Strain: Proteus Mirabilis (which should comply with the following biological reaction characteristics: dynamics (+), urease (+), lactose (−), glucose (+), H2S (−), phenylalanine deaminase (+).
Culture medium: modified LB culture medium (the component of the composition are: trytones of 1%, yeast extract of 0.5%, sodium chloride 1%, glucose of 0.1%, TTC of 0.002% and pH=7.2˜7.4). • 1.3 Experimental method:
Experimental results and evaluation:
The experiment adopts a bio-wave model which is used to research the promoting wave function of the compound of formula (I). […] Toxicological test of the compound of formula (I), including: • 1. acute toxicity test: including tests of administrating medicine by oral, intravenous injection and maximum limit amount for administration; • 2. […]

[3] = test system: sexual disfunction; assay: Test for volunteers (voluntary patient with disfunction for more than ten years); type: in vivo, human; conditions: one voluntary patient, 12 capsules (500 mg/grain) by oral in three days
[4] = 32 male patients, capsule 500 mg/day or alcoholic solution 10 ml/day by oral

CC(=O)N[C@@H]1[C@@H](O)[C@H](O)[C@@H](CO)O[C@H]1O [N-acetyl-D-glucosamine]
cure rate [1, 4]: 72% | total effective rate [1, 4]: 90% | patients in whom treatment failed ([1]; of 32 male patients, oral): 2 patients | patients turned from heavy and medium degree into light degree ([1]; of 32 male patients, oral): 7 patient | patients who became normal after treatment ([1]; of 32 male patients, oral): 23 patients | promoting wave function (wave pattern of concentric rings compared with control) [2]: many fine waves on each ring emerged | duration of the effect [3]: keep normal over two years | sexual function after treatment [3]: sexual function was recovered to normal
